Measured values published in PubChem BioAssay (NCI).
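Cultured in 96-well plates, cells were exposed to test compound for 48 hours across five concentrations. GI50 marks 50% less growth. TGI is the concentration that stops growth completely.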

Test system: MDA-MB-468 breast
Test: DTP human tumour cell line panel, 48 h

Row | Structure (SMILES) | GI50 [nM] | TGI [µM]
1 | Nc1nc2cc(O)ccc2n2cc3c(F)cccc3c12 | 2660 | > 100
2 | CC(C)N(CCCNC(=O)Nc1ccc(C(C)(C)C)cc1)C[C@H]1O[C@@H](n2ccc3c(N)ncnc32)[C@H](O)[C@@H]1O | > 100000 | > 100
3 | CC(C)Oc1ccc(-c2nn([C@@H](C)c3oc4ccc(F)cc4c(=O)c3-c3cccc(F)c3)c3ncnc(N)c23)cc1F | 37100 | > 100
4 | CCN(CC)CC(O)CNc1c2ccc(Cl)cc2nc2ccc(OC)cc12 (stereo unspecified) | 666 | 2.18
5 | Clc1ccc(Cn2c(CN3CCCC3)nc3ccccc32)cc1 | 13400 | 34.2
6 | CC1(C)CC[C@]2(C(=O)Nc3ccccn3)CC[C@]3(C)C(=CC[C@@H]4[C@@]5(C)C/C(=C/c6ccncc6)C(=O)C(C)(C)[C@@H]5CC[C@]43C)[C@@H]2C1 | 2120 | > 100
7 | O=c1ccccc(-c2ccc(Br)cc2)c1O | 257 | 2.32
8 | COC(=O)/C=C1/SC(=Nc2ccc(F)cc2)N(CCc2c[nH]c3ccc(O)cc23)C1=O | 3030 | 23.6
9 | CC(=O)c1c(Nc2cccc(F)c2)[nH]c2c(Cl)cc(Cl)c(Cl)c2c1=O | 317 | 1.35
10 | Cc1oc2c(C(=O)N/N=C\c3ccc(O)cc3O)c[nH]c2c1C | 1960 | 18.3
11 | COc1cc(-c2nn(-c3cccc(NC(=O)Nc4cccc(C(F)(F)F)c4)c3)cc2-c2ccncc2)ccc1Cl | 369 | 2.09
12 | O=C1C=CC2(O)OC/C(=C\c3ccccc3)C(O)=C2C1=O (stereo unspecified) | 1620 | 3.23
13 | Cc1nc2cc(-c3nn(C(C)C)c4ncnc(N)c34)ccc2o1 | 8.63 | 0.101
14 | Cn1c(-c2ccncc2)c(-c2ccc(F)cc2)c2ncccc21 | > 22700 | > 25
15 | O=C1/C=C/[C@@H](O)[C@@H]2C[C@@H](O)C[C@H]2/C=C/CCC[C@H](CCc2ccccc2)O1 | < 10 | 0.0251
16 | Cc1cc2cn3c4ccc(O)cc4nc(N)c3c2cc1C | 222 | 0.626
17 | O=c1ncc(I)cn1C1CC(O)C(CO)O1 (stereo unspecified) | 935000 | 2980
18 | CN(C)CCONC(=O)C12CC3CC(CC(C3)C1)C2 | > 100000 | > 100
19 | CNCCCNc1nc2ccccc2c2c(=O)c3cc(F)ccc3sc12 | 1180 | 2.6
20 | O=C(Nc1ccc(Cl)cc1)Nc1ccc(Cl)c(C(F)(F)F)c1 | 1670 | 4.8
21 | c1ccc(CC(Cc2ccccc2)C2=NCCCN2)cc1 | 2920 | > 100
22 | COc1cc(/C=C2\C(=O)Nc3ccccc32)cc(OC)c1O | 1570 | 7.67
23 | COc1ccc(-c2ccc(-c3ccc(C(=N)N)c(F)c3)s2)cc1 | 373 | 1.21
24 | Cc1cc(=O)n2nnc3c4ccccc4ccc3n12 | 1750 | 4.82

Row | Structure (SMILES) | GI50 [nM] | TGI [µM]
25 | COc1cc(OC)c(/C=C/c2cc[n+](C)c3ccccc23)c(OC)c1 | 360 | 5.01
26 | [2H]c1nc(C)nc([2H])c1-c1cc(NC[C@@H](C)c2cccc3c(C(=O)NC)ccnc23)ncn1 | 56000 | > 100
27 | COc1ccc(C(=S)N(C)NC(=O)CC(=O)NN(C)C(=S)c2ccc(OC)cc2)cc1 | 48700 | > 100
28 | O=C(O)c1ccc(NCc2nc3cc(Cl)c(Cl)cc3[nH]2)cc1 | 62000 | > 100
29 | COc1cc(C2CC(c3cccc(Nc4ccncc4)c3)=NN2c2ccccc2)cc(OC)c1OC (stereo unspecified) | 1490 | 2.95
30 | O=C(OCC1OC(n2cc(C(F)(F)F)c(=O)[nH]c2=O)CC1OC(=O)c1ccc([N+](=O)[O-])cc1)c1ccc([N+](=O)[O-])cc1 (stereo unspecified) | 28000 | > 100
31 | CC(=O)Oc1cc(C(C)C)c(OCCN(C)C)cc1C | > 100000 | > 100
32 | O=C1OCC2=C1C(c1ccc3c(c1)OCO3)c1cc3c(cc1O2)OCO3 (stereo unspecified) | 938 | > 100
33 | Cc1ccc(CN(C)c2ccc(CO)c(Cl)c2)cc1 | 38.9 | 0.166
34 | Nc1c(C(=O)c2cccc(OC[C@@H](O)CO)c2)cnn1-c1ccc(F)cc1 | > 25000 | > 25
35 | CCc1ccc(C(=O)/C=C/C23c4ccccc4C(c4ccccc42)C2C(=O)NC(=O)C23)cc1 (stereo unspecified) | 1790 | 4.13
36 | COc1ccc(C(=O)c2sc3nc4c(cc3c2N)CCCC4)cc1OC | 2460 | 23.6
37 | COc1cccc2c1O/C(=C\c1ncc([N+](=O)[O-])n1C)C2=O | 1590 | 4.3
38 | CC(=O)N1CCC(Nc2ncc3cc(Oc4ccc(F)cc4F)c(=O)n(C)c3n2)CC1 | > 25000 | > 25
39 | Nc1c(C(=O)Nc2cccc(C(F)(F)F)c2)sc2nc3c(cc12)C(O)CCC3 (stereo unspecified) | 1690 | > 62.1
40 | CCc1cccc2c3c(sc12)C(c1ccc(F)cc1)C(C#N)=C(/N=C/c1ccc(Cl)cc1)O3 (stereo unspecified) | 248 | 0.812
41 | COc1ccc(C2C=C(c3ccc(OC)c(OC)c3)N=C3SC=CN32)c(Br)c1 (stereo unspecified) | 1880 | 3.91
42 | COc1cc(/C=C/C(=O)c2ccccc2)cc(OC)c1OC | 2300 | 8.32
43 | COc1ccc(/C=C2\COc3ccc(O)c(O)c3C2=O)cc1 | 1240 | 3.94
44 | Cc1cc(Cl)ccc1OCc1nn2c(CCCCc3nnc4sc(COc5ccc(Cl)cc5C)nn34)nnc2s1 | 8420 | 81.2
45 | c1ccc(-c2n(Cc3ccc4ccccc4c3)c3c4ccccc4c4ccccc4c3[n+]2Cc2ccc3ccccc3c2)cc1 | 230 | 0.845
46 | C[CH2][Pb]([CH2]C)([CH2]C)[O]C(=O)COC | 201 | 0.71
47 | Cc1ccc(C2=NN(c3ccc(S(C)(=O)=O)cc3)C(=O)CC2)cc1 | 1230 | 4.86
48 | C#CC[C@@H]1C[C@]2(C)[C@H]3CC[C@@H]4[C@H]5C(C(=C)C)CC[C@]5(C(=O)NCCCCN)CC[C@@]4(C)[C@]3(C)CC[C@H]2C(C)(C)[C@H]1OC(C)=O (stereo partly specified) | 1780 | 3.59
